Measured values taken from patent publication EP4813979A1, “COMPOUND FOR EGFR PROTEIN DEGRADATION AND USE THEREOF” (TYK Medicines, Inc., priority 2023, dated 2025).

Columns and labels:
[1] = test system: A549; assay: Cell anti-proliferation experiment (CTG); assay type: cell-based; details: Homo sapiens, A549, 72 h, A549 (wild-type EGFR), class symbol
Source text: (§1) H1975 has an EGFR: T790M/L858R double mutation, PC-9 has an EGFR exon 19 deletion, and HCC827 has an exon 19 deletion mutation. Baf3-19del- T790M -C797S (Baf3-DTC) is a stable Ba/F3 clone expressing exogenous EGFR gene bearing T790M, C797S, and […] triple amino acid mutations, purchased from KYinno. Baf3-L858R-T790M - C797S (Baf3-LTC) is a stable Ba/F3 clone expressing exogenous EGFR gene bearing […], T790M, and C797S triple mutations, purchased from KYinno. A549 is a wild-type EGFR, purchased from Nanjing Kebai Biotechnology. A431 is a wild-type EGFR, purchased from Shanghai Xinyu Biotechnology. CellCounting-Lite2.0, Trypsin EDTA, 37°C CO2 incubator, cell counter, EnVision Serial No. 1050454.
(§2) • A) Digested logarithmic phase cells with Trypsin EDTA, added culture medium to stop the reaction, and mixing well with a pipette to prepare a cell suspension. • B) Used Vi-cell to determine cell concentration, and prepared a suspension of 15,000-25,000 cells per milliliter according to the experimental purpose and cell characteristics. • C) After prepared the cell suspension, mixed it gently and added 100 µL to each well, so that the cell density to be tested is 1500-2500 per well.
(§3) • A) Weighed approximately 2 mg the compound and calculated the required volume of DMSO according to the formula: Compound mass (mg) * Compound purity (%) / Compound molecular weight * 1000. • B) Placed the inoculated cell culture plate into an incubator and incubated for about 24 hours. Then added compounds of varying concentrations. • C) Diluted the 10mM compound stock solution to […] with culture medium, and added the […] compound solution to the second column of the deep well plate in sequence, and added […] culture medium containing 0.5% DMSO to the third to eleventh columns. • D) Gradient dilution: Taked 125 µL solution from the second column and added it to the third column, mix well; then taked 125 µL solution from the third column and added it to the fourth column, repeated this operation until the tenth column. • E) Used a multichannel pipette, aspirated 25 µL the compound from the deep-well plate and added it to a 96-well culture plate. Repeated this process three times for each compound on the 96-well plate. This will ultimately create a concentration gradient of up to 10,000 nM at a 1:4 ratio on the 96-well plate.
(§4) • A) The effects of the compound were observed under an inverted microscope after the 96-well plate was incubated in an incubator for 72 hours. • B) Added 25 µL CTG solution to each well, placed on a shaker for 10 minutes, and read the […] of each well.
(§5) Calculate the % Cell Viability using the following formula: %Cell Viability = 100% × (Lum_Sample−Lum_LC)/(Lum_HC−Lum_LC) [formula] • Lum_HC: Cell readings from the 0.1% DMSO control group • Lum_Sample: Cell readings with added compound • Lum_LC: Blank culture medium reading
(§6) The IC50 value was obtained by curve fitting using GraphPad Prism 8 software.

[2] = test system: HCC827; assay: Cell anti-proliferation experiment (CTG); assay type: cell-based; details: Homo sapiens, HCC827, 72 h, HCC827 (exon 19 deletion), class symbol
Source text: as §1, §2, §3, §4, §5, §6

[3] = test system: Baf3-L858R-T790M - C797S (Baf3-LTC); assay: Cell anti-proliferation experiment (CTG); assay type: cell-based; details: 72 h, class symbol
Source text: as §1, §2, §3, §4, §5, §6

[4] = test system: H1975; assay: Cell anti-proliferation experiment (CTG); assay type: cell-based; details: Homo sapiens, NCI-H1975, 72 h, H1975 (EGFR T790M/L858R), class symbol
Source text: as §1, §2, §3, §4, §5, §6

[5] = test system: A431; assay: Cell anti-proliferation experiment (CTG); assay type: cell-based; details: Homo sapiens, A-431, 72 h, A431 (wild-type EGFR), class symbol
Source text: as §1, §2, §3, §4, §5, §6

[6] = test system: Baf3-19del- T790M -C797S (Baf3-DTC); assay: Cell anti-proliferation experiment (CTG); assay type: cell-based; details: 72 h, class symbol
Source text: as §1, §2, §3, §4, §5, §6

[7] = test system: PC-9; assay: Cell anti-proliferation experiment (CTG); assay type: cell-based; details: Homo sapiens, PC-9, 72 h, PC-9 (EGFR exon 19 deletion), class symbol
Source text: as §1, §2, §3, §4, §5, §6

[8] = Pharmacokinetic tests in male SD rats; assay type: in vivo; details: oral gavage (po), 10 mg/kg, plasma
Method: Three healthy adult male SD rats, 6-8 weeks old, weighing 200-300 grams.
EDTA-Na2 anticoagulant, weighed 11.2 g EDTA-Na2 and placed it in a reagent bottle. Added 100 mL physiological saline and shaked to dissolve completely. After preparation, dispensed into 1.5 mL centrifuge tubes, each containing approximately 20 µL, for whole blood sample collection.
Accurately weighed approximately 10 mg the sample to be tested, added 10% of the converted total volume of DMSO to dissolve it, and then slowly added 90% of the total volume of 0.5% MC solvent while stirring. Sonicated and vortex to mix thoroughly to obtain a solution of the preparation that is considered to be homogeneous, with a concentration of 1 mg/mL. Prepared fresh immediately before use.
Piped 0.2 mL the sample into a 1.5 mL centrifuge tube and store at -80°C for analysis of the concentration of the drug solution.
Animals were housed in rat cages and fasted for at least 10 hours starting the day before the experiment, but water was allowed. On the day of the experiment, each animal was weighed and marked on its tail. Blank blood samples were collected before drug administration. Blood was collected via tail vein.
• Route of administration: Oral gavage (po); • Dosage concentration: 1 mg/ml; • Dosage: 10 mg/kg; • Dosage volume: 10 mL/kg; • Procedure: Hold the rat upright with your left hand wearing a bite-proof glove, insert the gavage needle into the throat through the mouth, and insert the needle when feeling no obvious resistance. Then inject the drug into the stomach.
Whole blood (0.1-0.2 ml) was collected from test animals at 0.5 h, 1 h, 2 h, 4 h, 6 h, 8 h, 12 h, and 24 h after drug administration. The samples were placed in EDTA-Na 2 anticoagulant tubes, inverted 3-4 times to mix, and centrifuged at 4°C, 2000 g for 5 min to separate the supernatant plasma. The plasma was promptly transferred to -80°C for storage until analysis. Blood was collected via tail vein.
A quantitative detection method for the analyte was established using Shimadzu liquid chromatography and Triple Quad™ 6500+AB mass spectrometry. The concentration of the parent drug in plasma was analyzed. The analytical results were controlled for variation using quality control samples, with the accuracy of the quality control samples expected to be between 80% and 120%.
The main pharmacokinetic parameters were calculated using a non-compartmental model in Winnonlin Phoenix software. These parameters included the area under the curve (AUC(0-t) and AUC(0-∞)), elimination half-life (T1/2), maximum plasma concentration (Cmax ), and time to reach maximum plasma concentration (Tmax).The results are shown in Table 3.

Row | SMILES | IC50 [1] [nM] | IC50 [2] [nM] | IC50 [3] [nM] | IC50 [4] [nM] | IC50 [5] [nM] | IC50 [6] [nM] | IC50 [7] [nM] | HL [8] [h] | AUC(0-inf) ([8]; rat) [ng·h/mL] | AUC(0-t) ([8]; rat) [ng·h/mL] | Cmax ([8]; rat) [ng/mL] | MRT last ([8]; rat) [h] | Tmax ([8]; rat) [h]
1 | CCc1cc(Nc2ncc(Cl)c(Nc3ccccc3P(C)(C)=O)n2)c(OC)cc1N1CC2(CCN(C(=O)CN3CCC(c4cc5c(cc4F)c(N4CCC(=O)NC4=O)nn5C)CC3)CC2)C1 [TC-093] | > 1000 | 10 to 100 | 10 to 100 | 10 to 100 | > 1000 | 10 to 100 | 100 to 1000 | 3.43 | 4930 | 5030 | 665 | 5.98 | 4
2 | CCc1cc(Nc2ncc(Br)c(Nc3ccccc3P(C)(C)=O)n2)c(OC)cc1N1CCN(C(=O)CN2CCC(c3cc4c(cc3F)c(N3CCC(=O)NC3=O)nn4-c3ccccc3)C(F)(F)C2)CC1 (centres unmarked) [TC-150] | > 1000 | 100 to 1000 | 10 to 100 | 100 to 1000 | > 1000 | 10 to 100 | > 1000 |  |  |  |  |  | 
3 | COc1nc(N2CCN(C(=O)CN3CCC(c4cc5c(cc4F)c(N4CCC(=O)NC4=O)nn5C)C(F)(F)C3)CC2)ccc1Nc1ncc(Cl)c(Nc2ccccc2P(C)(C)=O)n1 (centres unmarked) [TC-125] | 100 to 1000 | 100 to 1000 | 10 to 100 | 100 to 1000 | 100 to 1000 | 100 to 1000 | 100 to 1000 |  |  |  |  |  | 
4 | CCc1cc(Nc2ncc(Br)c(Nc3ccccc3P(C)(C)=O)n2)c(OC)cc1N1CCC2(CC1)CN(C(=O)CN1CCC(c3cc4c(cc3F)c(N3CCC(=O)NC3=O)nn4C)C(F)(F)C1)C2 (centres unmarked) [TC-226] | 100 to 1000 | 100 to 1000 | < 10 | 100 to 1000 | > 1000 | < 10 | 100 to 1000 |  |  |  |  |  | 
5 | CCc1cc(Nc2ncc(Cl)c(Nc3ccccc3P(C)(C)=O)n2)c2c(c1N1CCN(C(=O)CN3CCC(c4cc5c(cc4F)c(N4CCC(=O)NC4=O)nn5C)C(F)(F)C3)CC1)CCO2 (centres unmarked) [TC-135] | > 1000 | 100 to 1000 | < 10 | 10 to 100 | > 1000 | < 10 | > 1000 |  |  |  |  |  | 
6 | COc1cc(N2CCN(C(=O)CN3CCC(c4cc5c(cc4F)c(N4CCC(=O)NC4=O)nn5C)C(F)(F)C3)CC2)c(Cl)cc1Nc1ncc(Br)c(Nc2ccccc2P(C)(C)=O)n1 (centres unmarked) [TC-138] | > 1000 | 100 to 1000 | < 10 | 10 to 100 | > 1000 | < 10 | 100 to 1000 |  |  |  |  |  | 
7 | CCc1cc(Nc2ncc(Cl)c(Nc3ccccc3P(C)(C)=O)n2)c(OCC(F)(F)F)nc1N1CCN(C(=O)CN2CCC(c3cc4c(cc3F)c(N3CCC(=O)NC3=O)nn4C)C(F)(F)C2)CC1 (centres unmarked) [TC-127] | > 1000 | 100 to 1000 | 10 to 100 | 100 to 1000 | > 1000 | 10 to 100 | > 1000 |  |  |  |  |  | 
8 | CCc1cc(Nc2ncc(Cl)c(Nc3ccccc3P3(=O)CCCC3)n2)c(OC)cc1N1CC2(CCN(C(=O)CN3CCC(c4cc5c(cc4F)c(N4CCC(=O)NC4=O)nn5C)C(F)(F)C3)CC2)C1 (centres unmarked) [TB-005] | > 1000 | 100 to 1000 | 10 to 100 | 10 to 100 | > 1000 | 10 to 100 | > 1000 |  |  |  |  |  | 
9 | CCc1cc(Nc2ncc(Cl)c(Nc3ccccc3C(=O)NC)n2)c(OC)cc1N1CC2(CN(C(=O)CN3CCC(c4cc5c(cc4F)c(N4CCC(=O)NC4=O)nn5C)C(F)(F)C3)C2)C1 (centres unmarked) [TA-019] | > 1000 | > 1000 | 10 to 100 | < 10 | > 1000 | 10 to 100 | 100 to 1000 |  |  |  |  |  | 
10 | COc1cc(N2CCN(C(=O)CN3CCC(c4cc5c(cc4F)c(N4CCC(=O)NC4=O)nn5C)C(F)(F)C3)CC2)c(-c2cnn(C)c2)cc1Nc1ncc(Br)c(Nc2ccccc2P(C)(C)=O)n1 (centres unmarked) [TC-224] | 100 to 1000 | 10 to 100 | < 10 | 10 to 100 | 100 to 1000 | < 10 | 100 to 1000 |  |  |  |  |  | 
11 | CCc1cc(Nc2ncc(Cl)c(Nc3ccccc3P(C)(C)=O)n2)c(OC)cc1N1CCC2(CCN(C(=O)CN3CCC(c4cc5c(cc4F)c(N4CCC(=O)NC4=O)nn5C)C(F)(F)C3)CC2)C1 (centres unmarked) [TC-111] | 100 to 1000 | 100 to 1000 | 10 to 100 | 100 to 1000 | > 1000 | 10 to 100 | 100 to 1000 |  |  |  |  |  | 
